Legend:
[1] = tested on: adult subjects following inguinal hernia repair surgery; experiment: Phase I/II study, single infiltrative local administration after inguinal hernia repair surgery: efficacy (NPRS pain, rescue analgesic use); assay type: in vivo, human; details: TLC590 475 mg, ropivacaine group 150 mg
From the text: A Phase I/II, randomized, double-blind, comparator-controlled, dose-escalation study to assess the safety, PK, and efficacy of single postsurgical application of the anesthetic composition in accordance with the present disclosure (denoted as TLC590) compared with Naropin® via a single infiltrative local administration in adult subjects following inguinal hernia repair surgery. The study enrolled approximately 64 evaluable subjects who met all entry criteria across 4 cohorts. Dose escalation of a single postsurgical administration of TLC590 was performed using sequential dose levels, as compared with Naropin®. Dose-escalation were determined by review of […] (TEAEs) and all serious AEs (SAEs) by a safety monitoring committee (SMC). […] Pain intensity at rest and with movement assessed using an 11-point NPRS ranging from a score of 0 (no pain) to 10 (worst possible pain). • 2. […]

[2] = pKa of ropivacaine and calculated uncharged fraction; assay type: physicochemical; details: pH 6.0; calculated from pKa
Description: In some embodiments, the lipid-based complex of the anesthetic composition is formed by hydrating a lyophilized lipid cake with a pharmaceutically acceptable buffer solution at a pH higher than 5.5. […] In some embodiments, the lipid cake according to the present disclosure is prepared by dissolving apolar ropivacaine, phospholipid, and cholesterol in a solvent system, e.g., tert-butanol alone or a tert-butanol/water cosolvent, followed by removing the solvent system using a lyophilization technique.

CCCN1CCCC[C@H]1C(=O)Nc1c(C)cccc1C [ropivacaine]
median time to first rescue analgesic [1]: 13 h
median time to first postsurgical opioid use ([1]; among those who used rescue opioid): 3.3 h
theoretically uncharged ropivacaine, share of available ropivacaine [2]: 0.8%
